The assay deals with human APJ receptor (Homo sapiens (Human), UniProt P35414). Put plainly: biochemical. Format: biochemical. As to conditions: read-out: Activity hAPJ SPA EC50 IP. As to the method: The human APJ receptor was cloned by polymerase chain reaction and the gene encoding the receptor was subcloned in pFLAG-CMV™-3 expression vector (Sigma, Saint Louis, Mo. USA) in-house at Amgen. A GTPγS binding assay was performed on membranes prepared from CHO cells stably expressing human APJ receptor. The optimum experimental conditions for the concentrations of GDP, MgCl2, and NaCl in the assay buffer were initially determined. The assay was performed in assay buffer [20 mM HEPES, pH 7.5, 5 mM MgCl2, and 0.1% (w/v) BSA with 200 mM NaCl, 3 μM GDP] and membranes expressing human APJ receptor/well along with WGA PS beads. The reaction was initiated by addition of 0.2 nM [^35S]GTPγS (Perkin Elmer Life and Analytical Sciences, Waltham USA) in the absence or presence of various ligands and incubated at RT for 90 min. […] All the results presented are means of several independent experiments and analyzed by non-linear regression methods using commercially available program Prism (GraphPad, San Diego, Calif.) to obtain EC50 detailed in Table 58.

The structures appear in SMILES notation.

human APJ receptor, sequence (P35414 whole entry): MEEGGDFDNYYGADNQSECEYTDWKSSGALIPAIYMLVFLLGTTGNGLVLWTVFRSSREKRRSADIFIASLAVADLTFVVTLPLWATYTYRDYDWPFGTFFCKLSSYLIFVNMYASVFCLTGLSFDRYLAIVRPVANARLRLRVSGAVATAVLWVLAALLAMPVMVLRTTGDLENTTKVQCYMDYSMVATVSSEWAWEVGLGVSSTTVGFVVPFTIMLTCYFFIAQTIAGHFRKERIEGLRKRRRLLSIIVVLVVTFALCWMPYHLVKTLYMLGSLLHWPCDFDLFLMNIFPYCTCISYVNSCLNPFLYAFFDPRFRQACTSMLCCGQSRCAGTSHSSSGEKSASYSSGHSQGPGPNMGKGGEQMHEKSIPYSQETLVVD

As for `COc1cccc(-c2nnc(NS(=O)(=O)[C@@H](C)[C@H](OC)c3ncc(C)cn3)n2-c2c(OC)ccnc2OC)n1` (atropisomer, axis not shown) [Example 636.0, (1R,2S, P)-N-(4-(2,4-dimethoxypyridin-3-yl)-5-(6-methoxypyridin-2-yl)-4H-1,2,4-triazol-3-yl)-1-methoxy-1-(5-methylpyrimidin-2-yl)propane-2-sulfonamide and (1R,2S, M)-N-(4-(2,4-dimethoxypyridin-3-yl)-5-(6-methoxypyridin-2-yl)-4H-1,2,4-triazol-3-yl)-1-methoxy-1-(5-methylpyrimidin-2-yl)propane-2-sulfonamide], the EC50 is 0.4 nM.
In the case of `COc1cccc(F)c1-n1c(NS(=O)(=O)[C@@H](C)[C@H](C)c2ncc(C)cn2)nnc1-c1cncc(C)c1` (atropisomer, axis not shown) [Example 688.0, (2S,3R, P)-N-(4-(2-fluoro-6-methoxyphenyl)-5-(5-methyl-3-pyridinyl)-4H-1,2,4-triazol-3-yl)-3-(5-methyl-2-pyrimidinyl)-2-butanesulfonamide 2,2,2-trifluoroacetate and (2S,3R, M)-N-(4-(2-fluoro-6-methoxyphenyl)-5-(5-methyl-3-pyridinyl)-4H-1,2,4-triazol-3-yl)-3-(5-methyl-2-pyrimidinyl)-2-butanesulfonamide 2,2,2-trifluoroacetate], the EC50 stood at 0.66 nM.
With `COc1cccc(-c2nnc(NS(=O)(=O)[C@@H](C)[C@H](OC)c3ncc(C)cn3)n2-c2cccnc2OC)n1` (atropisomer, axis not shown) [Example 741.0, (1R,2S)-1-methoxy-N-(5-(6-methoxypyridin-2-yl)-4-(2-methoxypyridin-3-yl)-4H-1,2,4-triazol-3-yl)-1-(5-methylpyrimidin-2-yl)propane-2-sulfonamide], the EC50 stood at 3.1 nM.
The same measure for `COc1ccccc1-n1c(NS(=O)(=O)[C@@H](C)[C@H](C)c2ncc(C)cn2)nnc1-c1cncc(C)c1` (atropisomer, axis not shown) [Example 797.0, (2S,3R, P)-N-(4-(2-methoxyphenyl)-5-(5-methyl-3-pyridinyl)-4H-1,2,4-triazol-3-yl)-3-(5-methyl-2-pyrimidinyl)-2-butanesulfonamide and (2S,3R, M)-N-(4-(2-methoxyphenyl)-5-(5-methyl-3-pyridinyl)-4H-1,2,4-triazol-3-yl)-3-(5-methyl-2-pyrimidinyl)-2-butanesulfonamide]: 2.4 nM; for `COc1cccc(-c2nnc(NS(=O)(=O)[C@@H](C)[C@H](OC)c3ncc(C)cn3)n2-c2cc(C)ccc2OC)n1` (atropisomer, axis not shown; (P)) [Example 40.0, (1R,2S,P)-1-methoxy-N-(4-(2-methoxy-5-methylphenyl)-5-(6-methoxypyridin-2-yl)-4H-1,2,4-triazol-3-yl)-1-(5-methylpyrimidin-2-yl)propane-2-sulfonamide and (1R,2S,M)-1-methoxy-N-(4-(2-methoxy-5-methylphenyl)-5-(6-methoxypyridin-2-yl)-4H-1,2,4-triazol-3-yl)-1-(5-methylpyrimidin-2-yl)propane-2-sulfonamide]: 4.7 nM; for `COc1cccc(-c2nnc(NS(=O)(=O)[C@@H](C)[C@H](OC)c3ncc(C)cn3)n2-c2ccccc2OC)n1` (atropisomer, axis not shown; (P)) [Example 52.0, (1R,2S,P)-1-methoxy-N-(4-(2-methoxyphenyl)-5-(6-methoxy-2-pyridinyl)-4H-1,2,4-triazol-3-yl)-1-(5-methyl-2-pyrimidinyl)-2-propanesulfonamide and (1R,2S,M)-1-methoxy-N-(4-(2-methoxyphenyl)-5-(6-methoxy-2-pyridinyl)-4H-1,2,4-triazol-3-yl)-1-(5-methyl-2-pyrimidinyl)-2-propanesulfonamide]: 4.2 nM.
As to `COc1cccc(-c2nnc(NS(=O)(=O)[C@@H](C)[C@H](OC)c3ncc(C)cn3)n2-c2cccc(Cl)c2C)n1` (atropisomer, axis not shown; (P)) [Example 55.0, (1R,2S,P)-N-(4-(3-chloro-2-methylphenyl)-5-(6-methoxy-2-pyridinyl)-4H-1,2,4-triazol-3-yl)-1-methoxy-1-(5-methyl-2-pyrimidinyl)-2-propanesulfonamide and (1R,2S,M)-N-(4-(3-chloro-2-methylphenyl)-5-(6-methoxy-2-pyridinyl)-4H-1,2,4-triazol-3-yl)-1-methoxy-1-(5-methyl-2-pyrimidinyl)-2-propanesulfonamide], the concentration for a half-maximal effect (EC50) worked out at 17 nM.
For the compound `COc1cccc(-c2nnc(NS(=O)(=O)[C@@H](C)[C@H](OC)c3ncc(C)cn3)n2-c2ccccc2C)n1` (atropisomer, axis not shown; (P)) [Example 61.0, (1R,2S,P)-1-methoxy-N-(5-(6-methoxy-2-pyridinyl)-4-(2-methylphenyl)-4H-1,2,4-triazol-3-yl)-1-(5-methyl-2-pyrimidinyl)-2-propanesulfonamide and (1R,2S,M)-1-methoxy-N-(5-(6-methoxy-2-pyridinyl)-4-(2-methylphenyl)-4H-1,2,4-triazol-3-yl)-1-(5-methyl-2-pyrimidinyl)-2-propanesulfonamide], the EC50 worked out at 6.5 nM.
For the compound `COc1cccc(-c2nnc(NS(=O)(=O)[C@@H](C)[C@H](OC)c3ncc(C)cn3)n2-c2ccc(F)cc2Cl)n1` (atropisomer, axis not shown; (P)) [Example 67.0, (1R,2S,P)-N-(4-(2-chloro-4-fluorophenyl)-5-(6-methoxy-2-pyridinyl)-4H-1,2,4-triazol-3-yl)-1-methoxy-1-(5-methyl-2-pyrimidinyl)-2-propanesulfonamide and (1R,2S,M)-N-(4-(2-chloro-4-fluorophenyl)-5-(6-methoxy-2-pyridinyl)-4H-1,2,4-triazol-3-yl)-1-methoxy-1-(5-methyl-2-pyrimidinyl)-2-propanesulfonamide], the EC50 worked out at 15 nM.
As to `COc1cccc(-c2nnc(NS(=O)(=O)[C@@H](C)[C@H](OC)c3ncc(C)cn3)n2-c2ccccc2Cl)n1` (atropisomer, axis not shown; (P)) [Example 69.0, (1R,2S,P)-N-(4-(2-chlorophenyl)-5-(6-methoxy-2-pyridinyl)-4H-1,2,4-triazol-3-yl)-1-methoxy-1-(5-methyl-2-pyrimidinyl)-2-propanesulfonamide and (1R,2S,M)-N-(4-(2-chlorophenyl)-5-(6-methoxy-2-pyridinyl)-4H-1,2,4-triazol-3-yl)-1-methoxy-1-(5-methyl-2-pyrimidinyl)-2-propanesulfonamide], the EC50 came to 2.1 nM.
The same measure for `COc1cccc(-c2nnc(NS(=O)(=O)[C@@H](C)[C@H](OC)c3ncc(C)cn3)n2-c2cccc(C)c2C)n1` (atropisomer, axis not shown; (P)) [Example 70.0, (1R,2S,P)-N-(4-(2,3-dimethylphenyl)-5-(6-methoxy-2-pyridinyl)-4H-1,2,4-triazol-3-yl)-1-methoxy-1-(5-methyl-2-pyrimidinyl)-2-propanesulfonamide and (1R,2S,M)-N-(4-(2,3-dimethylphenyl)-5-(6-methoxy-2-pyridinyl)-4H-1,2,4-triazol-3-yl)-1-methoxy-1-(5-methyl-2-pyrimidinyl)-2-propanesulfonamide]: 2.6 nM; for `COc1cccc(-c2nnc(NS(=O)(=O)[C@@H](C)[C@H](OC)c3ncc(C)cn3)n2-c2ccccc2C(F)(F)F)n1` (atropisomer, axis not shown; (P)) [Example 74.0, (1R,2S,P)-1-methoxy-N-(5-(6-methoxy-2-pyridinyl)-4-(2-(trifluoromethyl)phenyl)-4H-1,2,4-triazol-3-yl)-1-(5-methyl-2-pyrimidinyl)-2-propanesulfonamide and (1R,2S,M)-1-methoxy-N-(5-(6-methoxy-2-pyridinyl)-4-(2-(trifluoromethyl)phenyl)-4H-1,2,4-triazol-3-yl)-1-(5-methyl-2-pyrimidinyl)-2-propanesulfonamide]: 2.5 nM; for `COc1cccc(-c2nnc(NS(=O)(=O)[C@@H](C)[C@H](OC)c3ncc(C)cn3)n2-c2ccccc2F)n1` (atropisomer, axis not shown; (P)) [Example 76.0, (1R,2S,P)-N-(4-(2-fluorophenyl)-5-(6-methoxy-2-pyridinyl)-4H-1,2,4-triazol-3-yl)-1-methoxy-1-(5-methyl-2-pyrimidinyl)-2-propanesulfonamide and (1R,2S,M)-N-(4-(2-fluorophenyl)-5-(6-methoxy-2-pyridinyl)-4H-1,2,4-triazol-3-yl)-1-methoxy-1-(5-methyl-2-pyrimidinyl)-2-propanesulfonamide]: 3 nM.
The same measure for `COc1cccc(-c2nnc(NS(=O)(=O)[C@H](C)Cc3ncc(F)cn3)n2-c2ccccc2OC)n1` (mixture of isomers) [Example 31.0, (2R)-1-(5-fluoropyrimidin-2-yl)-N-(4-(2-methoxyphenyl)-5-(6-methoxypyridin-2-yl)-4H-1,2,4-triazol-3-yl)propane-2-sulfonamide and (2S)-1-(5-fluoropyrimidin-2-yl)-N-(4-(2-methoxyphenyl)-5-(6-methoxypyridin-2-yl)-4H-1,2,4-triazol-3-yl)propane-2-sulfonamide]: 2.4 nM.

Values taken from patent US10058550B2, “Methods of treating heart failure” (priority 2015, dated 2018).
